Measurements reported in BindingDB's records for doi:10.1021/jm990229t (Ariad Pharmaceuticals, 1999).

What was measured:
[1] = target: Proto-oncogene tyrosine-protein kinase Src (Homo sapiens, UniProt P12931); assay: Competitive Binding Assay; conditions: pH 7.4; 22 °C
Experimental: (§1) Fluorescence polarization competitive binding assays were used to measure the IC50s of compounds binding to the different SH2 domains. The difference in polarization values of fluorescein-conjugated peptide reflects the bound and unbound state of the probe. IC50s were calculated based on the binding of the fluorescein-conjugated peptide to the protein with compound addition relative to vehicle-alone control samples.

[2] = target: T1, Tyrosine-protein kinase ZAP-70 (Homo sapiens, UniProt P43403); assay: Competitive Binding Assay; conditions: pH 7.4; 22 °C
T1 sequence (P43403 whole entry): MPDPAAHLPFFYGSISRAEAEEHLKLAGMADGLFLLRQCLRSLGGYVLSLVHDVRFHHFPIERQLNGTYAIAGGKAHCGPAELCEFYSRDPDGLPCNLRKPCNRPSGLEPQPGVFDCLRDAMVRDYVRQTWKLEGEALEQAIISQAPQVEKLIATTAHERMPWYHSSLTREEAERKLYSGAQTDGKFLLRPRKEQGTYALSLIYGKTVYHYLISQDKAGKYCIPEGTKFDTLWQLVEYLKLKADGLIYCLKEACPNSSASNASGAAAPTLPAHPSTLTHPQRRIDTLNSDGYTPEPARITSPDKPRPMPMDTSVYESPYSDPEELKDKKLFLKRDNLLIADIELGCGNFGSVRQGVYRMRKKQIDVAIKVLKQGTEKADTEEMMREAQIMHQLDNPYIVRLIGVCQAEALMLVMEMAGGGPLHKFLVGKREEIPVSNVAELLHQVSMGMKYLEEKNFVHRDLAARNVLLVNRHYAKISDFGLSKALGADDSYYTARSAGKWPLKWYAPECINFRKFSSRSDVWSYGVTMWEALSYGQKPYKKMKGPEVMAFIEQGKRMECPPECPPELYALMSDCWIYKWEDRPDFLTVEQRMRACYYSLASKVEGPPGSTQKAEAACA
Experimental: as §1

Sequence of Proto-oncogene tyrosine-protein kinase Src (P12931 2-536 limits assumed): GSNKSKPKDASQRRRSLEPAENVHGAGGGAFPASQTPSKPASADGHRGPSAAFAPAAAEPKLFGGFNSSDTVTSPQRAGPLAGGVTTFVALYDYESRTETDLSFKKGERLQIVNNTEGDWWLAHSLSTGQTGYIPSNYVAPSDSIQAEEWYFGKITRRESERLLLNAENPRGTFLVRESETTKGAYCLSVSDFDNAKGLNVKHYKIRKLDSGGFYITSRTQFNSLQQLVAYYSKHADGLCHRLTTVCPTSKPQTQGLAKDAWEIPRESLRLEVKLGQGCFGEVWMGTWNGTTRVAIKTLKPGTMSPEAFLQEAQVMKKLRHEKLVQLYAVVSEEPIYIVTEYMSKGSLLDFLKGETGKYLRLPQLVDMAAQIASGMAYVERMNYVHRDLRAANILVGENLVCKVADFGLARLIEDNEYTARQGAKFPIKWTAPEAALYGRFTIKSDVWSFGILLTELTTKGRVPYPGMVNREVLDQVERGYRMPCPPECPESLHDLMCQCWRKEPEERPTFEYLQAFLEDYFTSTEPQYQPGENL

IC50 [1]: 312 µM
IC50 [2]: > 500 µM
SMILES: CC(=O)N[C@@H](Cc1ccc(OP(=O)(O)O)cc1)C(=O)N[C@@H](CCC(N)=O)c1nc(Cc2c(C)cc(C)cc2C)no1 [4-[(2S)-2-{[(1S)-3-carbamoyl-1-{3-[(2,4,6-trimethylphenyl)methyl]-1,2,4-oxadiazol-5-yl}propyl]carbamoyl}-2-acetamidoethyl]phenoxyphosphonic acid]
